# Like-named read-outs stand apart in the source and are kept apart here.
# Key:
# [1] = tested on: stomach mucosal membrane; experiment: Ulcerogenic activity: gastric ulceration; format: in vivo, male Wistar rats; details: p.o., 4 h
# Experimental: Each of the test compounds was orally administered by the same way as in the test on anti-inflammatory activity to male Wistar rats weighing 120 to 150 g which had been fasted for 24 hours. Four hours later, they were killed with ether.
# [2] = tested on: left hind paw edema (carrageenin); experiment: Anti-inflammatory activity: carrageenin-induced left hind paw edema; format: in vivo, male Wistar rats; details: Rattus norvegicus, po, read-out: Percent inhibition (edema)
# Experimental: Male Wistar rats weighing 120 to 150 g which had been fasted for 24 hours were used in groups each consisting of 5 rats. In each group, the volumes of the left hind paw were measured by a volume differential meter (made by Ugo Basile Company), and each of the test compounds was suspended in an aqueous solution of 0.5% of carboxymethyl cellulose and 2.0% of Tween 80, and administered orally through a tube. After one hour from the administration, 0.1 ml of a 1% suspension of carrageenin in distilled water was subcutaneously injected into the plantar tissues of the left hind paw. Three hours later, the volumes of the left hind paw were again measured. The increase in volume of the left hind paw of each rat in each group (the volume of edema) was measured.
# [3] = tested on: writhings (acetic acid) in the mice; experiment: Analgesic activity: acetic acid writhing test; format: in vivo, male mice (ddY); details: Mus musculus, po, read-out: ED50 (analgesic, writhing inhibition)
# Experimental: Male mice (ddY) weighing 18 to 22 g were used in groups each consisting of 10 mice. Each of the compounds was suspended in an aqueous solution of 0.5% of carboxymethyl cellulose and 2.0% of Tween 80, and administered orally through a tube. After one hour from the administration, 0.6% acetic acid was administered intraperitoneally in an amount of 0.1 ml per 10 g of body weight, and the number of writhings which occurred in the mice during a period of 20 minutes after the administration was measured. The percent inhibition was calculated from the following equation, and the ED50 values of the test compounds were calculated from the percent inhibition in accordance with the method of Litchfield-Wilcoxon.
# [4] = Toxicity test (LD50); details: mouse, in vivo; oral, observed for 1 week; parentheses show 95% confidence limits
# Experimental: Each of the test compounds was suspended in a physiological saline solution having dissolved therein 2% of Tween 80, and orally administered through a tube to groups of ddY mice (male: 19 to 22 g) each group consisting of 6 mice. The mice were then observed for 1 week. The LD50 values were calculated from the lethality in accordance with the method of Litchfield-Wilcoxon.
# [5] = tested on: digestive organs; details: known agents, statement in words; cited from earlier work
# [6] = target: T1, microsomes of bovine seminal vesicle (a prostaglandin synthesizing enzyme) (Bos taurus, UniProt O62664); experiment: Activity of inhibiting prostaglandin synthesis (prostaglandin E2 formed); format: biochemical; details: 37° C., 5 minutes, pH 8.0, 50 μM arachidonic acid; dissolved as a sodium salt; read-out: ED50 (inhibition of prostaglandin synthesis)
# T1 construct: a microsome fraction prepared from bovine seminal vesicle; from tissue; host or cells: bovine seminal vesicle, lyophilized microsome fraction
# T1 sequence (O62664 25-600): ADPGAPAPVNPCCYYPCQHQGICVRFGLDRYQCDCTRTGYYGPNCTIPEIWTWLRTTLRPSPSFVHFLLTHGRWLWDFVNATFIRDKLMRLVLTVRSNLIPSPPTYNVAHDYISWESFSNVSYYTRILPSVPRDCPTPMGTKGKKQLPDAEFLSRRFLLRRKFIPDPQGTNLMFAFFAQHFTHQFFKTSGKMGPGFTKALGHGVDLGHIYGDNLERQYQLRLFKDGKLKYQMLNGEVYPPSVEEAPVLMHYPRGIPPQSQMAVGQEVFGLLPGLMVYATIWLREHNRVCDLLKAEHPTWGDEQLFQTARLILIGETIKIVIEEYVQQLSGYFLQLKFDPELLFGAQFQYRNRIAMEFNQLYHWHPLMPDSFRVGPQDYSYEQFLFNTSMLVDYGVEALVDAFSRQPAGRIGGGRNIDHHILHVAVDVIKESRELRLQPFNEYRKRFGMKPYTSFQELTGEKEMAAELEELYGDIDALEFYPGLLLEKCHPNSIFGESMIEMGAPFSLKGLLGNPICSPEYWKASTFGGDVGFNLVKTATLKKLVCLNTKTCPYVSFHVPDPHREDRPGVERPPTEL
# Experimental: The activity of inhibiting prostaglandin synthesis was measured by adding a test compound, i.e. a substance having the activity of inhibiting prostaglandin synthesis, to a prostaglandin synthesizing reaction system shown below, and quantitatively determining to what extent synthesis of prostaglandin was inhibited.
# 100 mM tris-HCl buffer (pH=8.0),
# 0.0125 μCi/ml (14c)-arachidonic acid,
# 1 mg/ml, as protein, of microsomes of bovine seminal vesicle (a prostaglandin synthesizing enzyme obtained by lyophylizing a microsome fraction prepared from bovine seminal vesicle).
# The test compound was added to the reaction system to adjust the total amount to 1 ml. As a control, 1 ml of the above reaction system without addition of the test compound was provided. Each of these was incubated with shaking at 37° C. for 5 minutes, and 0.5 ml of 0.3 M citric acid was added to stop the reaction. The prostaglandin formed was extracted with ethyl acetate, fractionated by thin-layer chromatography. The radioactivity of each fraction was measured by a liquid scintillation counter. The amount of prostaglandin E2 formed in the group to which the test compound had been applied was measured, and the percent inhibition was calculated in accordance with the following equation. From the percent inhibition, the ED50 value of the test compounds was calculated in accordance with the Litchfield-Wilcoxon method. […]
# [7] = 1 mg/kg, p.o., 1 h before carrageenin, measured 3 h later
# [8] = 3 mg/kg, p.o., 1 h before carrageenin, measured 3 h later
# [9] = p.o. 1 h before 0.6% acetic acid i.p., parentheses show 95% confidence limits
# [10] = 10 mg/kg, p.o., 1 h before carrageenin, measured 3 h later
# [11] = p.o., 1 h before carrageenin, measured 3 h later
Compound,Gastric ulceration: bleeding at the mucosal membrane ([1]; 10 mg/kg),Gastric ulceration: damage beneath the mucosal membrane ([1]; 10 mg/kg),Gastric ulceration: bleeding at the mucosal membrane ([1]; 30 mg/kg),Gastric ulceration: damage beneath the mucosal membrane ([1]; 30 mg/kg),"inhibition in vivo at 1 mg/kg [2, 7]","inhibition in vivo at 3 mg/kg [2, 8]","ED50 [3, 9]",LD50 at 168 h [4],"inhibition in vivo at 10 mg/kg [2, 10]",further results
"O=C(O)Cc1cccc2c(-c3ccc(Br)cc3)nccc12 [B, 1-(4-bromophenyl)isoquinoline-5-acetic acid]",0/5,0/5,2/5,4/5,33.7 ± 6.1%,48.2 ± 4.4%,1 mg/kg,182 mg/kg,–,"inhibition in vivo at 0.3 mg/kg ([2]; 0.3 mg/kg, p.o., 1 h before carrageenin, measured 3 h later): 26.8 ± 5.3%"
"O=C(O)Cc1cccc2c(-c3ccc(F)cc3)nccc12 [C, 1-(4-fluorophenyl)isoquinoline-5-acetic acid]",–,–,–,–,25.6 ± 3.4%,28.3 ± 5.8%,8.8 mg/kg,> 300 mg/kg,36.5 ± 4%,–
"Cc1ccc(-c2nccc3c(CC(=O)O)cccc23)cc1 [Compound E, 1-(4-methylphenyl)isoquinoline-5-acetic acid]",0/5,0/5,0/5,4/5,–,26.9 ± 5.2%,4.3 mg/kg,> 300 mg/kg,49.5 ± 5.1%,–
"O=C(O)Cc1cccc2c(C3CCCCC3)nccc12 [Compound L, 1-cyclohexylisoquinoline-5-acetic acid]",0/5,0/5,3/5,3/5,9.7 ± 2%,17.4 ± 5.2%,8.5 mg/kg,> 300 mg/kg,43.1 ± 4.3%,–
"CN(C)c1ccc(-c2nccc3c(CC(=O)O)cccc23)cc1 [D, 1-(4-dimethylaminophenyl)isoquinoline-5-acetic acid]",0/6,0/6,3/6,3/6,16.3 ± 7.1%,34.2 ± 5.6%,0.11 mg/kg,> 300 mg/kg,42.1 ± 5.3%,–
"CC(C(=O)O)c1cccc2c(-c3ccc(Cl)cc3)nccc12 (centres unmarked) [F, 2-[1-(4-chlorophenyl)isoquinolin-5-yl]propionic acid]",1/5,0/5,2/5,2/5,27.3 ± 6.3%,33.1 ± 4.8%,3.2 mg/kg,–,39.7 ± 5.1%,–
"COc1ccc(-c2nccc3c(CC(=O)O)cccc23)cc1 [G, 1-(4-methoxyphenyl)isoquinoline-5-acetic acid]",–,–,0/5,0/5,13.1 ± 9.1%,32.3 ± 6.3%,9.2 mg/kg,> 300 mg/kg,41.2 ± 7.2%,–
"O=C(O)Cc1cccc2c(-c3ccccc3)nccc12 [H, 1-phenylisoquinoline-5-acetic acid]",1/15,1/15,4/20,2/20,–,21.8 ± 4.5%,4.1 mg/kg,> 300 mg/kg,31 ± 5.2%,"inhibition in vivo at 30 mg/kg [2, 11]: 46.4 ± 7.7%"
"O=C(O)Cc1cccc2c(-c3ccc(C(F)(F)F)cc3)nccc12 [I, 1-(4-trifluoromethylphenyl)isoquinoline-5-acetic acid]",–,–,–,–,–,17 ± 4.5%,–,–,24.5 ± 7.1%,"inhibition in vivo at 30 mg/kg [2, 11]: 30.2 ± 5.3%"
"COc1ccc2c(c1)c(CC(=O)O)c(C)n2C(=O)c1ccc(Cl)cc1 [Indomethacin, reference compound]",–,–,–,–,–,–,–,17.3 mg/kg,–,inhibition in vivo at 1 mg/kg ([2]; 3 h): 15.9 ± 6.2%; inhibition in vivo at 3 mg/kg ([2]; 3 h): 29.8 ± 5.7%; inhibition in vivo at 10 mg/kg ([2]; 3 h): 40.6 ± 5.1%; ED50 ([3]; 1 h): 0.21 mg/kg; troubles in the digestive organs [5]: fairly heavy troubles in the digestive organs
"CCOC(=O)Cc1cccc2c(-c3ccccc3)nccc12 [J, ethyl-1-phenylisoquinoline-5-acetate]",–,–,–,–,–,–,–,–,23.2 ± 6.1%,"inhibition in vivo at 30 mg/kg [2, 11]: 41.1 ± 4.8%"
"NC(=O)Cc1cccc2c(-c3ccccc3)nccc12 [K, 1-phenylisoquinoline-5-acetamide]",–,–,–,–,–,–,–,–,9 ± 6.4%,"inhibition in vivo at 30 mg/kg [2, 11]: 39.7 ± 5.8%"
"CC(C)c1nccc2c(CC(=O)O)cccc12 [M, 1-isopropylisoquinoline-5-acetic acid]",–,–,–,–,19.3 ± 2.6%,38.6 ± 3.2%,3.5 mg/kg,250 mg/kg,62.9 ± 5.9%,–
"O=C(O)Cc1cccc2c(C3CCCC3)nccc12 [N, 1-cyclopentylisoquinoline-5-acetic acid]",–,–,–,–,–,21.9 ± 8.1%,–,–,24.8 ± 4.9%,–
"CC(C)Cc1nccc2c(CC(=O)O)cccc12 [O, 1-isobutylisoquinoline-5-acetic acid]",–,–,–,–,–,21.2 ± 7.8%,–,–,30.3 ± 5.6%,"inhibition in vivo at 30 mg/kg [2, 11]: 42.8 ± 8.8%"
"CCC(C)c1nccc2c(CC(=O)O)cccc12 (centres unmarked) [P, 1-sec-butylisoquinoline-5-acetic acid]",–,–,–,–,–,15.9 ± 10.4%,–,–,39.6 ± 7%,–
"CCCCC1C(=O)N(c2ccccc2)N(c2ccccc2)C1=O [Phenylbutazone, reference compound]",–,–,–,–,–,–,109 mg/kg,–,–,IC50 [6]: 26.1 µM; troubles in the digestive organs [5]: fairly heavy troubles in the digestive organs

# Source: US4337256A, “1-Phenyl isoquinoline-5-acetic acid compounds and analgesic compositions thereof” (priority 1978, dated 1982)
